Measured values: patent publication US20110001093A1, “FULLERENE DERIVATIVE” (SUMITOMO CHEMICAL COMPANY LIMITED, priority 2007, published 2011)

Assay: Evaluation of solubility in xylene (visual observation)
Format: physicochemical
Conditions: stirred by magnetic stirrer 10 minutes, visually observed

Structure (SMILES)	Solubility of a 1 wt % xylene solution
COCCOCCN1CC2C3=c4c5c6c7c(cc8cc9cc%10cc%11cc%12c%13c(c4c4c5c5c7c8c7c9c%10c8c%11c%13c4c8c75)=C(C3)C%12)CC62C1c1cccc2ccccc12 (stereo not shown) [Fullerene derivative A, N-methoxyethoxyethyl-2-(1-naphthyl)fulleropyrrolidine]	Dissolved
COCCOCCN1CC2C3=c4c5c6c7c(cc8cc9cc%10cc%11cc%12c%13c(c4c4c5c5c7c8c7c9c%10c8c%11c%13c4c8c75)=C(C3)C%12)CC62C1c1c(F)c(F)c(F)c(F)c1F (stereo not shown) [Fullerene derivative B, N-methoxyethoxyethyl-2-(perfluorophenyl)fulleropyrrolidine]	Dissolved
COCCOCCN1CC2C3=c4c5c6c7c(cc8cc9cc%10cc%11cc%12c%13c(c4c4c5c5c7c8c7c9c%10c8c%11c%13c4c8c75)=C(C3)C%12)CC62C1c1ccc(F)cc1 (stereo not shown) [Fullerene derivative C, N-methoxyethoxyethyl-2-(4-fluorophenyl) fulleropyrrolidine]	Dissolved
COCCOCCN1CC2C3=c4c5c6c7c(cc8cc9cc%10cc%11cc%12c%13c(c4c4c5c5c7c8c7c9c%10c8c%11c%13c4c8c75)=C(C3)C%12)CC62C1c1ccc(C)cc1 (stereo not shown) [Fullerene derivative D, N-methoxyethoxyethyl-2-(4-methylphenyl)fulleropyrrolidine]	Dissolved
COCCOCCN1CC2C3=c4c5c6c7c(cc8cc9cc%10cc%11cc%12c%13c(c4c4c5c5c7c8c7c9c%10c8c%11c%13c4c8c75)=C(C3)C%12)CC62C1c1ccccc1 (stereo not shown) [Fullerene derivative E, N-methoxyethoxyethyl-2-phenyl-fulleropyrrolidine]	Dissolved
COCCOCCN1CC2C3=c4c5c6c7c(cc8cc9cc%10cc%11cc%12c%13c(c4c4c5c5c7c8c7c9c%10c8c%11c%13c4c8c75)=C(C3)C%12)CC62C1c1ccc(C(F)(F)F)cc1 (stereo not shown) [Fullerene derivative F]	Dissolved
COCCOCCN1CC2C3=c4c5c6c7c(cc8cc9cc%10cc%11cc%12c%13c(c4c4c5c5c7c8c7c9c%10c8c%11c%13c4c8c75)=C(C3)C%12)CC62C1CCc1ccccc1 (stereo not shown) [Fullerene derivative G, N-methoxyethoxyethyl-2-(2-phenylethyl)fulleropyrrolidine]	Dissolved
